# In US4863748A, “Dietary products and uses comprising methylsulfonylmethane” (priority 1986, dated 1989):
# Columns and labels:
# Escherichia coli = assay: In vitro antibacterial action; assay type: cell-based
# Description: (§1) While not as potent or toxic to microbial populations as specific drug agents, by reason of its extremely low host systemic toxicity, methylsulfonylmethane contrasts sharply with present antiinfective therapeutants and methodology. It is doubtful if chemical resistance will develop with infective agents controlled by high, but safe, systemic levels of methylsulfonylmethane.
# Salmonello typhimurium = assay: In vitro antibacterial action; assay type: cell-based
# Description: as §1
# [1] = test system: Streptococcus thermophilus; assay: In vitro antibacterial action; assay type: cell-based
# Description: as §1
# Staphylococcus aureus = assay: In vitro antibacterial action; assay type: cell-based
# Description: as §1
# Leuconostoc citrovorum = assay: In vitro antibacterial action; assay type: cell-based
# Description: as §1
# eye = assay: Inflammation of the eye following accidental injury (Example 14); assay type: in vivo, human; settings: 15% solution in isotonic saline
# Description: A 15% solution of methylsulfonylmethane in isotonic saline was a soothing treatment for the eye following accidental injury due to particulate matter in the eye as dust or pollen.
# intractable pain = assay: Pain in humans (Example 31); assay type: in vivo, human
# Description: The following patients suffering from intractable pain were given methylsulfonylmethane orally in the amounts and for the period of time set forth in the table below: […]
# [2] = Naturally occurring body levels of methylsulfonylmethane; assay type: in vivo, animals
# Description: The methylsulfonylmethane is usually provided in the aninmal's normal feed rations, periodically throughout the day or on successive days, or both, e.g., for 2 to 21 days or even longer. The daily food ration appropriate for the animal being fed is supplemented with an amount of methylsulfonylmethane calculated to correspond to a predetermined amount per total body weight of the animals being fed. The exact amount of methylsulfonylmethane ingested each day is not always critical, particularly when methylsulfonylmethane administration is over an extended period of days, because the ingested methylsulfonylmethane accumulates in the body tissues and fluids, i.e., reaches an effective titer. Methylsulfonylmethane-supplemented rations providing levels of as low as 0.5-1 mg/kg animal body weight are sometimes effective and levels as high as 300 mg/kg body weight or more are well tolerated. The usual target level per individual animal is about 0.2-2.0 mg/kg body weight preferably 0.5-1.0 mg per kg body weight. Total daily supplements corresponding to up to about 1 gm/kg body weight or more, are preferably employed, depending on the degree of deficiency. Healthy animals often have methylsulfonylmethane blood levels of at least 1 ppm, and desirably, enough methylsulfonylmethane is provided to raise blood levels to above 1 ppm. […]
# Sclerotium rolfsii = assay: Antifungal activity; assay type: cell-based; settings: 500 ppm
# Description: as §1
# Phytophthora cinnamomi = assay: Antifungal activity; assay type: cell-based; settings: 500 ppm
# Description: as §1
# Aspergillus niger = assay: Antifungal activity; assay type: cell-based; settings: 500 ppm
# Description: as §1
# Giardia lamblia = assay: In vitro inhibition of Giardia lamblia (Example 28(b)); assay type: cell-based
# Protocol: However, at 20 mg/ml concentration, it was strongly inhibitory and concentrations above 40 mg/ml promptly killed the organism.
# acute pain = assay: Acute pain (Example 21); assay type: in vivo, human; settings: single 1.5 gm dose; two 1 gm doses at 4-hour intervals, oral
# Trichomonas vaginalis = assay: In vitro culture of Trichomonas vaginalis (Example 28(a)); assay type: cell-based, Trichomonas vaginalis Strain ATCC No. 30001
# Protocol: Methylsulfonylmethane has highly variable toxicities for various nematodes. Based on this discovery, tests were conducted on several parasites adverse to the health of vertebrates
# Strain ATCC No. 30001 was cultured in vitro employing diamonds tym medium. Methylsulfonylmethane was added thereto at levels varying from 5.5 to 109.3 mg/ml. At concentrations of 5.5 to 10.9 mg/ml, the methylsulfonylmethane had no effect on this protozoan.
# leg cramps = assay: Leg cramps in marathon runner (Example 27); assay type: in vivo, human; settings: 15 mg/kg/day, at least 7 days
# Protocol: Before a marathon race, administer methylsulfonylmethane to the runner for at least 7 days at the rate of 15 mg/kg/day.
smiles,measurement,setting,value
CS(C)(=O)=O [methylsulfonylmethane],in vitro antibacterial action,Escherichia coli,weak
same,in vitro antibacterial action,Salmonello typhimurium,weak
same,in vitro antibacterial action,[1],weak
same,in vitro antibacterial action,Staphylococcus aureus,weak
same,in vitro antibacterial action,Leuconostoc citrovorum,weak
same,effect on the eye following accidental injury,eye,soothing
same,Results,"intractable pain; A. B., 69 F, Deg. Arth., 0.5 bid × 18 months",pain relief
same,Results,"intractable pain; B. A., 63 F, Deg. Arth., 0.25 g qid",pain relief
same,Results: pain relief,"intractable pain; C. A., 62 M, Bursitis Chronic, 0.25 g bid × 3 months",50%
same,Results,"intractable pain; D. B., 35 M, Low back pain, 0.5 g qid × 9 months",pain relief
same,Results: muscle pain,"intractable pain; I. B., 62 F, Multiple Sclerosis, 0.5 bid × 18 months",reduction
same,Results,"intractable pain; M. A., 55 F, Rh. Arth., 0.25 g bid × 9 months",pain relief
same,Results,"intractable pain; N. B., 62 M, Tendonitis, 0.25 g qid",reduced pain
same,Results,"intractable pain; P. A., 61 F, Deg. Arth., 1 g 4×/day × 19 months",pain relief
same,blood level in healthy animals,[2]; healthy animals often,at least 1 ppm
same,methylsulfonylmethane in the humoral fluid,[2]; with maturity,less than 0.5 ppm
same,antiparasitic (antifungal) activity,Sclerotium rolfsii,good antiparasitic activity
same,antiparasitic (antifungal) activity,Phytophthora cinnamomi,good antiparasitic activity
same,antiparasitic (antifungal) activity,Aspergillus niger,good antiparasitic activity
same,concentration promptly killing the organism,Giardia lamblia,above 40 mg/ml
same,concentration with no significant inhibition,Giardia lamblia,≤ 1 mg/mL
same,strongly inhibitory concentration,Giardia lamblia,20 mg/mL
same,relief of acute mid-back pain (calculi obstructed ureter) and lower abdomen pain spasms,acute pain,proven useful in relieving acute pain
same,lethal concentrations,"Trichomonas vaginalis; all higher concentrations tested, to 109.3 mg/ml",> 21.9 mg/mL
same,activity relative to metronidazole HCL,"Trichomonas vaginalis; in vitro, based on this assay",about half
same,concentration with no effect on this protozoan,"Trichomonas vaginalis; in vitro, diamonds tym medium",5.5 to 10.9 mg/mL
same,likelihood of severe leg cramp during or after race,leg cramps,significantly reduced
